In US11840686B2, “Modulation of prekallikrein (PKK) expression” (Ionis Pharmaceuticals, Inc., priority 2013, dated 2023):
Strand notation (5' to 3'): a small letter for the sugar, then the base; units joined by * are phosphorothioate-linked, units joined directly phosphodiester-linked; [ ] holds rarer units or linkages, { } end groups; capitals alone tell only the bases. e = 2'-O-(2-methoxyethyl) (MOE); [5mC] = 5-methylcytosine; d = 2'-deoxy (DNA)

Tested on: human PKK mRNA
Experiment: Antisense inhibition of human PKK mRNA in HepaRG cells, 5,000 nM (Example 2)
Type: cell-based
In short: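 Percent inhibition of PKK mRNA is relative to untreated control, with qRT-PCR (probe set RTS3454) values adjusted to total RNA by RIBOGREEN. Oligonucleotides, fully phosphorothioate 2′-MOE gapmers, were delivered at 5,000 nM by electroporation into 20,000 HepaRG cells/well for about 24 h.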

[1] = HepaRG cells, 5,000 nM antisense oligonucleotide, 5-10-5 gapmers, Table 16
[2] = human PKK mRNA, HepaRG cells, 5-10-5 motif oligonucleotides targeting SEQ ID NO: 1 and 10
[3] = Table 7, HepaRG cells, electroporation with 5,000 nM antisense oligonucleotide, approx. 24 hours, PKK mRNA by RT-PCR (RTS3454), relative to untreated control cells
[4] = HepaRG cells, electroporation, 5,000 nM antisense oligonucleotide, approx. 24 hours, primer probe set RTS3454, relative to untreated control cells, Table 11
[5] = HepaRG cells, electroporation, 5,000 nM antisense oligonucleotide, approx. 24 hours, primer probe set RTS3454, relative to untreated control cells, Table 12
[6] = Table 13, human PKK mRNA in HepaRG cells, 5-10-5 gapmers
[7] = HepaRG cells, 5,000 nM antisense oligonucleotide, 5-10-5 gapmers, Table 17
[8] = HepaRG cells, electroporation with 5,000 nM antisense oligonucleotide, approximately 24 hours, PKK mRNA by RT-PCR (RTS3454), relative to untreated control cells, Table 6 experiment
[9] = HepaRG cells, electroporation with 5,000 nM antisense oligonucleotide, approximately 24 hours, PKK mRNA by RT-PCR (RTS3454), relative to untreated control cells, Table 5 experiment
[10] = Table 8, HepaRG cells, electroporation with 5,000 nM antisense oligonucleotide, approx. 24 hours, PKK mRNA by RT-PCR (RTS3454), relative to untreated control cells

Substance: 546994 (eG*eT*eT*e[5mC]*eA*dT*dG*dT*dG*dG*d[5mC]*dA*dA*d[5mC]*d[5mC]*eT*eG*eT*eG*eA; antisense) [compound 546994]
- % inhibition [1]: 58%

Substance: 547664 (eG*eT*eA*e[5mC]*e[5mC]*dT*dA*dT*dA*dA*d[5mC]*dT*dA*dT*dA*eA*e[5mC]*eA*eG*eT; antisense) [compound 547664]
- % inhibition [2]: 2%

Substance: 546228 (antisense eG*eT*eG*eA*e[5mC]*dT*d[5mC]*dG*dA*dT*dT*dT*dT*d[5mC]*d[5mC]*eA*eT*eA*e[5mC]*eA) [compound 546228]
- % inhibition [3]: 60%

Substance: 547682 (antisense e[5mC]*eA*eA*eT*eA*dT*d[5mC]*dA*d[5mC]*dT*dG*dT*dA*d[5mC]*d[5mC]*eT*eA*eT*eA*eT) [compound 547682]
- % inhibition [1]: 20%

Substance: 546372 (antisense eG*eA*eA*eT*eT*dT*dG*dA*d[5mC]*dT*dT*dG*dA*dA*d[5mC]*eT*e[5mC]*eA*eG*eG) [compound 546372]
- % inhibition [4]: 49%

Substance: 547548 (antisense eT*eG*e[5mC]*eA*eT*dA*d[5mC]*dT*d[5mC]*dG*d[5mC]*d[5mC]*dT*dT*dT*eG*eT*eG*eA*eT) [compound 547548]
- % inhibition [5]: 61%

Substance: 546830 (eT*eA*eA*e[5mC]*eA*dG*dT*dA*dT*d[5mC]*dA*d[5mC]*dT*dG*dT*eA*e[5mC]*eT*eA*eG; antisense) [compound 546830]
- % inhibition [6]: 78%

Substance: 547740 (eA*eG*eG*eT*eG*dG*dT*dG*dG*dG*dA*dT*dT*dG*dG*eT*eG*eG*eT*eG; antisense) [compound 547740]
- % inhibition [7]: 30%

Substance: 547322 (antisense e[5mC]*eT*eT*e[5mC]*eA*dA*dG*dG*dA*dA*dT*dG*dT*d[5mC]*d[5mC]*eA*eG*eA*eA*eA) [compound 547322]
- % inhibition [8]: 65%

Substance: 547306 (antisense eA*eG*e[5mC]*eA*eA*d[5mC]*d[5mC]*dA*dA*dA*d[5mC]*d[5mC]*dT*dT*dT*eT*e[5mC]*eT*e[5mC]*e[5mC]) [compound 547306]
- % inhibition [9]: 62%

Substance: 546229 (antisense eA*e[5mC]*eA*eT*eT*dT*d[5mC]*dT*dT*dT*dG*dT*dG*dA*d[5mC]*eT*e[5mC]*eG*eA*eT) [compound 546229]
- % inhibition [3]: 19%

Substance: 548755 (antisense eT*eA*eT*e[5mC]*dA*d[5mC]*dT*dG*dT*dA*d[5mC]*dT*dA*dG*eT*eT*eT*e[5mC]) [compound 548755]
- % inhibition (human PKK mRNA, HepaRG cells, 5,000 nM antisense oligonucleotide, Table 18): 20%

Substance: 547620 (antisense eT*eT*e[5mC]*e[5mC]*eT*dA*dT*dA*dA*d[5mC]*dA*dG*dT*dA*dT*e[5mC]*eA*e[5mC]*eT*eG) [compound 547620]
- % inhibition (human PKK mRNA in HepaRG cells, 5-10-5 gapmers, Table 14): 65%

Substance: 547035 (eT*eG*eG*eT*e[5mC]*d[5mC]*d[5mC]*dA*dA*dA*dT*dT*dG*dG*dA*eG*eT*eG*e[5mC]*eA; antisense) [compound 547035]
- % inhibition [7]: 40%

Substance: 546389 (e[5mC]*eG*eT*eG*e[5mC]*dT*dG*dA*dA*dA*dG*d[5mC]*dG*dG*dG*e[5mC]*eT*eT*e[5mC]*eA; antisense) [compound 546389]
- % inhibition [4]: 71%

Substance: 546719 (e[5mC]*e[5mC]*e[5mC]*e[5mC]*e[5mC]*dA*dT*dG*dT*d[5mC]*d[5mC]*dA*dT*dG*dG*eA*e[5mC]*eT*eT*eT; antisense) [compound 546719]
- % inhibition [5]: 55%

Substance: 547574 (eA*e[5mC]*eA*e[5mC]*eG*d[5mC]*dA*d[5mC]*dA*dG*dG*dT*d[5mC]*d[5mC]*d[5mC]*eA*eG*eG*eG*e[5mC]; antisense) [compound 547574]
- % inhibition [6]: 51%

Substance: 547573 (eT*eA*eA*eG*e[5mC]*dA*dA*dG*dG*d[5mC]*d[5mC]*dT*dA*dT*dG*eT*eG*eT*eG*eG; antisense) [compound 547573]
- % inhibition [6]: 2%

Substance: 547528 (antisense e[5mC]*eA*e[5mC]*eA*eG*dT*d[5mC]*dA*dT*dG*dG*dA*dG*dA*dT*e[5mC]*eT*e[5mC]*eA*eG) [compound 547528]
- % inhibition [4]: 78%

Substance: 546203 (antisense eA*eA*eT*eT*eG*dT*dT*d[5mC]*d[5mC]*dG*dG*dT*dA*d[5mC]*dT*e[5mC]*eT*eG*e[5mC]*e[5mC]) [compound 546203]
- % inhibition [8]: 76%

Substance: 547727 (eT*eG*eG*e[5mC]*eA*dG*dG*dA*dT*dT*dG*dG*dT*dG*dG*eT*eG*eG*eA*eA; antisense) [compound 547727]
- % inhibition [7]: 0%

Substance: 546259 (eA*e[5mC]*eT*eG*eA*d[5mC]*dA*dG*d[5mC]*dG*dA*dA*dT*d[5mC]*dA*eT*e[5mC]*eT*eT*eT; antisense) [compound 546259]
- % inhibition [10]: 86%

Substance: 547427 (eA*eA*eG*eA*eG*dT*dA*dA*d[5mC]*d[5mC]*dA*dG*dA*dG*d[5mC]*eT*e[5mC]*e[5mC]*e[5mC]*eT; antisense) [compound 547427]
- % inhibition [10]: 79%

Substance: 546230 (antisense eG*eT*eG*eT*eG*d[5mC]*d[5mC]*dA*d[5mC]*dT*dT*dT*d[5mC]*dA*dG*eA*eT*eG*eT*eT) [compound 546230]
- % inhibition [3]: 70%

Substance: 547404 (eA*eG*eT*e[5mC]*eA*dA*d[5mC]*dT*d[5mC]*d[5mC]*d[5mC]*dG*dG*dG*dT*eA*eA*eA*eT*eT; antisense) [compound 547404]
- % inhibition [3]: 64%

Substance: 547762 (antisense eT*eG*eA*eA*eA*d[5mC]*dT*dG*dG*dG*d[5mC]*dA*dG*dT*d[5mC]*e[5mC]*eT*eT*e[5mC]*e[5mC]) [compound 547762]
- % inhibition [7]: 0%

Substance: 546943 (e[5mC]*eA*eG*eT*eT*dT*dG*dG*d[5mC]*d[5mC]*dT*dT*dT*d[5mC]*d[5mC]*eA*eT*e[5mC]*eT*e[5mC]; antisense) [compound 546943]
- % inhibition [1]: 54%

Substance: 546839 (e[5mC]*e[5mC]*eT*eA*eT*dA*dA*d[5mC]*dT*d[5mC]*dT*dA*dA*d[5mC]*dA*eG*eT*eA*eT*e[5mC]; antisense) [compound 546839]
- % inhibition [6]: 47%

Substance: 547396 (eT*e[5mC]*eA*eG*eG*dT*dA*dA*dA*dG*dT*dT*d[5mC]*dT*dT*eT*eT*eG*e[5mC]*eA; antisense) [compound 547396]
- % inhibition [3]: 49%

Substance: 546235 (eG*eG*e[5mC]*eT*eA*dT*dA*dT*d[5mC]*d[5mC]*dA*dG*dA*dT*dA*eT*eG*eG*eT*eG; antisense) [compound 546235]
- % inhibition [3]: 77%

Substance: 547300 (antisense eG*eA*eA*e[5mC]*eT*dT*dG*d[5mC]*dT*dG*dG*dA*dA*dG*dA*eA*eA*eA*e[5mC]*eT) [compound 547300]
- % inhibition [9]: 37%

Substance: 547553 (antisense eT*eG*e[5mC]*eT*e[5mC]*d[5mC]*d[5mC]*d[5mC]*dA*dT*dG*d[5mC]*dA*dT*dA*e[5mC]*eT*e[5mC]*eG*e[5mC]) [compound 547553]
- % inhibition [5]: 64%

Substance: 547526 (antisense eG*e[5mC]*eG*eA*e[5mC]*d[5mC]*dT*d[5mC]*dG*d[5mC]*dA*dT*dT*dG*dT*e[5mC]*eA*eG*e[5mC]*e[5mC]) [compound 547526]
- % inhibition [4]: 59%

Substance: 546311 (antisense e[5mC]*eA*eT*eG*eA*dT*dT*d[5mC]*d[5mC]*d[5mC]*dT*dT*d[5mC]*dT*dG*eA*eG*eA*e[5mC]*eT) [compound 546311]
- % inhibition (Table 9 experiment, HepaRG cells, 20,000 cells per well, electroporation with 5,000 nM antisense oligonucleotide, approx. 24 hours, PKK mRNA by RT-PCR (RTS3454), relative to untreated control cells): 79%
- % inhibition (Table 10 experiment, HepaRG cells, 20,000 cells per well, electroporation with 5,000 nM antisense oligonucleotide, approx. 24 hours, PKK mRNA by RT-PCR (RTS3454), relative to untreated control cells): 76%

Substance: 547655 (eA*eA*eT*eA*eT*d[5mC]*dA*d[5mC]*dT*dG*dT*d[5mC]*d[5mC]*dT*dA*eT*eA*eA*e[5mC]*eT; antisense) [compound 547655]
- % inhibition [2]: 37%

Substance: 547687 (antisense eA*e[5mC]*eT*eG*eT*d[5mC]*d[5mC]*dT*dA*dT*dA*dA*d[5mC]*dT*dA*eT*eA*eT*e[5mC]*eA) [compound 547687]
- % inhibition [1]: 41%
